≈ marks a conversion by molar mass, not a printed value.
How the values were obtained:
Hepatitis C virus = experiment: Antiviral activity against Hepatitis C virus infected in human HuH7 cells assessed as inhibition of HCV subgenomic replicon replication after 72 hrs by ELISA; assay type: functional, organism-based, Hepacivirus hominis, Huh-7; settings: Hepatitis C virus, Huh-7, 72 h; read-out: EC50
[1] = Inhibition of Hepatitis C virus full-length NS3/4A protease assessed as quenched-fluorogenic RET-S1 substrate cleavage incubated for 10 mins prior to substrate addition by FRET analysis; set-up: species or system Hepacivirus hominis
[2] = Ratio of AUC (0 to 24 hrs) in liver to plasma in Sprague-Dawley rat at 30 mg/kg, po by HPLC-MS/MS analysis; assay type: ADME, organism-based; set-up: dose 30 mg/kg, route oral; settings: Sprague-Dawley, liver and plasma, read-out: Ratio AUC
[3] = AUC (0 to 24 hrs) in Sprague-Dawley rat plasma at 30 mg/kg, po by HPLC-MS/MS analysis; assay type: ADME, organism-based; set-up: time < 24 hr, dose 30 mg/kg, route oral
[4] = AUC (0 to 24 hrs) in Sprague-Dawley rat liver at 30 mg/kg, po by HPLC-MS/MS analysis; assay type: ADME, organism-based; set-up: time < 24 hr, dose 30 mg/kg, route oral
[5] = Plasma clearance in rat assessed as extraction ratio; assay type: ADME, organism-based; settings: read-out: ERH
[6] = Efflux ratio of permeability from basolateral to apical side over apical to basolateral side in human Caco2 cells; assay type: ADME, cell-based; settings: Caco-2
[7] = Permeability from apical to basolateral side of human Caco2 cells; assay type: ADME, cell-based; settings: Caco-2, read-out: permeability
[8] = Aqueous solubility of the compound at pH 6.5 by modified shake-flask method; assay type: physicochemical
[9] = Aqueous solubility of the compound at pH 7.4 by modified shake-flask method; assay type: physicochemical
[10] = Aqueous solubility of the compound at pH 1.2 by modified shake-flask method; assay type: physicochemical
[11] = Metabolic stability in dog hepatocytes assessed as extraction ratio at 1 uM; assay type: ADME, cell-based, Canis lupus familiaris, Hepatocyte; settings: read-out: ERH
[12] = Metabolic stability in cynomolgus monkey hepatocytes assessed as extraction ratio at 1 uM; assay type: ADME, cell-based, Macaca fascicularis, Hepatocyte; settings: read-out: ERH
[13] = Metabolic stability in human hepatocytes assessed as extraction ratio at 1 uM; assay type: ADME, cell-based, Hepatocyte; settings: read-out: ERH
[14] = Metabolic stability in rat hepatocytes assessed as extraction ratio at 1 uM; assay type: ADME, cell-based, Hepatocyte; settings: read-out: ERH
[15] = Lipophilicity, log D of the compound; assay type: physicochemical; settings: octanol/water
Rattus norvegicus = experiment: Volume of distribution at steady state in Sprague-Dawley rat at 1 mg/kg, iv by HPLC-MS/MS analysis; settings: in vivo
[16] = Ratio of EC50 for Hepatitis C virus infected in human HuH7 cells to IC50 for Hepatitis C virus full-length NS3/4A protease; set-up: species or system Huh-7

| EC50 (Hepatitis C virus) | IC50 [1] | Kp [2] | AUC(0-t) at 24 h [3] | AUC(0-t) at 24 h [4] | hepatic extraction ratio [5] | efflux ratio [6] | Papp A→B [7] | solubility thermodynamic [8] | solubility thermodynamic [9] | solubility thermodynamic [10] | hepatic extraction ratio at 1 µM [11] | hepatic extraction ratio at 1 µM [12] | hepatic extraction ratio at 1 µM [13] | hepatic extraction ratio at 1 µM [14] | logD [15] | Vdss (Rattus norvegicus) | SMILES | Ratio [16] |
| --- | --- | --- | --- | --- | --- | --- | --- | --- | --- | --- | --- | --- | --- | --- | --- | --- | --- | --- |
| 2.8 nM | 2.5 nM | 132 | 1030 ng·h/mL | 136000 ng·h/mL | > 1 | > 2 | < 2 ×10⁻⁶ cm/s | 165 µg/mL (≈ 230 µM) | > 1000 µg/mL | 0.5 µg/mL (≈ 0.697 µM) | 0.16 | 0.56 | 0.56 | 0.16 | 2.5 | 2.583 L/kg | CN(C)S(=O)(=O)NC(=O)[C@@]12C[C@H]1/C=C\CCCCC[C@H](NC(=O)OC(C)(C)C)C(=O)N1C[C@H](OC(=O)N3Cc4ccccc4C3)C[C@H]1C(=O)N2 | – |
| 2350 nM | 177 nM | – | – | – | – | – | – | – | – | – | – | – | – | – | – | – | CC(C)(C)OC(=O)N[C@H]1CCCCC/C=C\[C@@H]2C[C@@]2(C(=O)O)NC(=O)[C@@H]2C[C@@H](OC(=O)N3CCc4ccccc4C3)CN2C1=O | 10 |
